In patent US10722484B2, “Methods of cancer treatment” (K-Gen, Inc., priority 2016, dated 2020):
Where two headings read alike, the source gives them in different places.

How the values were obtained:
[1] = test system: THP1; experiment: Proliferation assay (CellTiter Glo); format: cell-based, human; settings: 96 hours
Experimental: (§1) The dose range for most compounds was 4.6 nM-30 μM. The dose ranges for some compounds were adjusted downward to 0.46 nM-3 μM or 0.08 nM-0.5 μM or 0.03 nM-0.2 μM. […] The results are shown in Tables 3-6 for pancreatic cancer, lung cancer, colon/gastric cancer, and leukemia.

[2] = test system: HL60; experiment: Proliferation assay (CellTiter Glo); format: cell-based, human; settings: 96 hours
Experimental: as §1

[3] = test system: MiaPaCa-2; experiment: Proliferation assay (CellTiter Glo); format: cell-based; settings: 96 hours
[4] = test system: SW620; experiment: Proliferation assay (CellTiter Glo); format: cell-based; settings: 96 hours
Experimental: as §1

[5] = test system: HCT116; experiment: Proliferation assay (CellTiter Glo); format: cell-based; settings: 96 hours
Experimental: as §1

[6] = test system: AGS; experiment: Proliferation assay (CellTiter Glo); format: cell-based; settings: 96 hours
Experimental: as §1

[7] = test system: H441; experiment: Proliferation assay (CellTiter Glo); format: cell-based; settings: 96 hours
Experimental: as §1

[8] = test system: H727; experiment: Proliferation assay (CellTiter Glo); format: cell-based; settings: 96 hours
Experimental: as §1

[9] = test system: KP-4; experiment: Proliferation assay (CellTiter Glo); format: cell-based; settings: 96 hours
Experimental: as §1

[10] = test system: H358; experiment: Proliferation assay (CellTiter Glo); format: cell-based; settings: HE58, 96 hours
Experimental: as §1

[11] = test system: Capan-1; experiment: Proliferation assay (CellTiter Glo); format: cell-based; settings: 96 hours
Experimental: as §1

[12] = test system: A549; experiment: Proliferation assay (CellTiter Glo); format: cell-based; settings: 96 hours
Experimental: as §1

[13] = test system: LS180; experiment: Proliferation assay (CellTiter Glo); format: cell-based; settings: 96 hours
Experimental: as §1

[14] = test system: HT29; experiment: Proliferation assay (CellTiter Glo); format: cell-based; settings: HT29 (RAS WT); 96 hours
Experimental: as §1
(§2) Other cancer cell lines having wild-type K-RAS status and K-RAS mutation at G12 were also screened using the PKC activator compounds. […] K104 was tested in a range of 0.03 nM-0.2 μM. […] The dose ranges were adjusted downward to 0.46 nM-3 μM for K102 and 0.08 nM-0.5 μM for K103 for some cell lines. The results of the screening of cancer cells lines with wild-type K-RAS status and K-RAS mutations at the G12 positions are presented in Table 7.

[15] = test system: SW900; experiment: Proliferation assay (CellTiter Glo); format: cell-based; settings: SW900 (K-RAS: G12V); 96 hours
Experimental: as §1, §2

[16] = test system: Colo205; experiment: Proliferation assay (CellTiter Glo); format: cell-based; settings: Colo205 (RAS WT); 96 hours
Experimental: as §1, §2

[17] = test system: RPMI8226; experiment: Proliferation assay (CellTiter Glo); format: cell-based; settings: RPM18226; 96 hours
Experimental: as §1, §2

[18] = test system: H1915; experiment: Proliferation assay (CellTiter Glo); format: cell-based; settings: H1915 (RAS WT); 96 hours
Experimental: as §1, §2

[19] = test system: H838; experiment: Proliferation assay (CellTiter Glo); format: cell-based; settings: H838 (RAS WT); 96 hours
Experimental: as §1, §2

[20] = test system: BxPC-3; experiment: Proliferation assay (CellTiter Glo); format: cell-based; settings: BxPC-3 (RAS WT); 96 hours
Experimental: as §1, §2

[21] = test system: A549 lung cancer cell line; experiment: Combination viability/proliferation assays (384-well IC50 ratio, 96-well MacSynergy II); format: cell-based; settings: for Combination in A549: K101A (synergism/antagonism): agent assayed in combination with K101A; for Combination in A549: K101A (synergism/antagonism) / Combination in A549: K102 (synergism/antagonism): * 2-3 concentrations, # full concentration ranges; for Combination in A549: K102 (synergism/antagonism): agent assayed in combination with K102; for Combination in A549: K101A (synergism/antagonism) / Combination in A549: K102 (synergism/antagonism) / Ratio ([…] DMSO IC50/combination IC50): A549
Experimental: A 96-well MacSynergy II format for combination test was also used. […] The analysis was done with the SQRT(Data) scale and the four parameter Hill curve was fitted using XLfit5.1 (the MacSynergy II Excel Spreadsheet) for the inhibition data. Synergy (positive number) or Antagonism (negative number) volumes were calculated. […] Three-dimensional MacSynergy II graphs were generated where positive values indicated synergism and negative values indicated antagonism.

[22] = test system: HL-60 human promyelocytic leukemia cells; experiment: Combination viability/proliferation assays
Experimental: Briefly, cells at density of 1,000-10,000 cells/well in 96-well plates or 200-1600 cells/well in 384-well plates were seeded and incubated at 37° C. for 24 hours before addition of compounds. A series of 9 different concentrations of compound stocks (500×) were prepared by 3-fold serial dilutions in DMSO. […] After 96 hours of incubation, 35 μL or 50 μL of CellTiter Glo reagent (Promega) was added to each well and luminescence was measured after 10 minutes using EnVision (PerkinElmer). Luminescence from cells treated with DMSO alone was set as Max and % of inhibition was calculated as follows: Inhibition %=(Max-Sample value)/Max*100. Data were analyzed using XLfit software (ID Business Solutions Ltd.) or GraphPad software and IC50, relative IC50, and % of top inhibition were calculated.
The top concentration for the tested PKC activator compound was set at roughly the IC50 when the same testing compound was used as a single agent assayed in the same cell line. The next dose was either 3-fold or 10-fold dilution from the top concentration.

[23] = test system: CCRF-CEM; experiment: Proliferation assay (CellTiter Glo); format: cell-based; settings: 96 hours
Experimental: as §1

[24] = test system: AsPC-1; experiment: Proliferation assay (CellTiter Glo); format: cell-based; settings: 96 hours
Experimental: as §1

[25] = test system: Pan2.03; experiment: Proliferation assay (CellTiter Glo); format: cell-based; settings: 96 hours
Experimental: as §1

[26] = test system: Pan2.13; experiment: Proliferation assay (CellTiter Glo); format: cell-based; settings: 96 hours
Experimental: as §1

Compound: CC(=O)OC12CC(C)C3(O)C(C=C(CO)CC4(O)C(O)C(C)=CC43)C1C2(C)C (centres unmarked) [Compound K101C]
- EC50 ([1]; THP1 (N-RAS: G12D), absolute EC50, read-out: Ab EC50): 16 µM
- Top Inhibition % ([1]; THP1, % of top inhibition): 51.4%
- EC50 ([1]; THP1, relative EC50, read-out: Re EC50): 8.11 µM
- EC50 ([2]; HL60 (N-RAS: Q61L), absolute EC50, read-out: Ab EC50): 17 µM
- Top Inhibition % ([2]; HL60, % of top inhibition): 63.9%
- EC50 ([2]; HL60, relative EC50, read-out: Re EC50): 13 µM
- EC50 ([3]; MiaPaCa-2 (K-RAS: G12C), absolute EC50, read-out: Ab EC50): > 30 µM
- Top Inhibition % ([3]; MiaPaCa-2, % of top inhibition): 40.1%
- EC50 ([3]; MiaPaCa-2, relative EC50, read-out: Re EC50): 4.37 µM
- EC50 ([4]; SW620 (K-RAS: G12V), absolute EC50, read-out: Ab EC50): > 30 µM
- Top Inhibition % ([4]; SW620, % of top inhibition): 0.0%
- EC50 ([5]; HCT116 (K-RAS: G13D), absolute EC50, read-out: Ab EC50): > 30 µM
- Top Inhibition % ([5]; HCT116, % of top inhibition): 12.2%
- EC50 ([6]; AGS (gastric, K-RAS: G12D), absolute EC50, read-out: Ab EC50): > 30 µM
- Top Inhibition % ([6]; AGS, % of top inhibition): 25.3%
- EC50 ([6]; AGS, relative EC50, read-out: Re EC50): 11 µM
- EC50 ([7]; H441 (K-RAS: G12V), absolute EC50, read-out: Ab EC50): > 30 µM
- Top Inhibition % ([7]; H441, % of top inhibition): 37.0%
- EC50 ([7]; H441, relative EC50, read-out: Re EC50): 7.44 µM
- EC50 ([8]; H727 (K-RAS: G12V), absolute EC50, read-out: Ab EC50): > 30 µM
- Top Inhibition % ([8]; H727, % of top inhibition): 42.8%
- EC50 ([8]; H727, relative EC50, read-out: Re EC50): 3.61 µM
- EC50 ([9]; KP-4 (K-RAS: G12C), absolute EC50, read-out: Ab EC50): 11 µM
- Top Inhibition % ([9]; KP-4, % of top inhibition): 70.4%
- EC50 ([9]; KP-4, relative EC50, read-out: Re EC50): 6.77 µM
- Top Inhibition % ([10]; % of top inhibition): 44.0%
- EC50 ([10]; absolute EC50, read-out: Ab EC50): > 30 µM
- EC50 ([10]; relative EC50, read-out: Re EC50): 4.98 µM
- EC50 ([11]; Capan-1 (K-RAS: G12V), absolute EC50, read-out: Ab EC50): > 30 µM
- Top Inhibition % ([11]; Capan-1, % of top inhibition): 35.7%
- EC50 ([11]; Capan-1, relative EC50, read-out: Re EC50): 5.4 µM
- EC50 ([12]; A549 (K-RAS: G12S), absolute EC50, read-out: Ab EC50): 13 µM
- Top Inhibition % ([12]; A549, % of top inhibition): 70.3%
- EC50 ([12]; A549, relative EC50, read-out: Re EC50): 6.68 µM
- EC50 ([13]; LS180 (K-RAS: G12D), absolute EC50, read-out: Ab EC50): > 30 µM
- Top Inhibition % ([13]; LS180, % of top inhibition): 6.8%
- Top Inhibition % [14]: 4.8%
- Top Inhibition % [15]: 10.9%
- Top Inhibition % [16]: 73.2%
- Top Inhibition % [17]: 22.72%
- Top Inhibition % [18]: 28.9%
- Top Inhibition % [19]: 20.2%
- Top Inhibition % [20]: 36.67%

Compound: O=C(CCCCCCC(=O)Nc1ccccc1)NO [SAHA, suberoylanilide hydroxamic acid]
- Combination in A549: K101A (synergism/antagonism) [21]: Antagonism (minor)
- Combination in A549: K102 (synergism/antagonism) [21]: Antagonism (minor)
- effect in combination with K101A and K102 [22]: moderate or minor synergistic/additive effect

Compound: Cc1nc(Nc2ncc(C(=O)Nc3c(C)cccc3Cl)s2)cc(N2CCN(CCO)CC2)n1 [Dasatinib]
- increase of potency in inhibiting growth ([22]; combined with K101A (0.3 μM) or K102 (0.005 μM)): more than 10 fold

Compound: CC(=O)OC12CC(C)C3(O)C(C=C(COC(=O)CC(N)C(=O)[O-])CC4(O)C(=O)C(C)=CC43)C1C2(C)C.[Na+] (centres unmarked) [Compound K101I]
- EC50 ([23]; CCRF-CEM (K-RAS: G12D), absolute EC50, read-out: Ab EC50): > 30000 nM
- Top Inhibition % ([23]; CCRF-CEM, % of top inhibition): 37.4%
- EC50 ([23]; CCRF-CEM, relative EC50, read-out: Re EC50): 1510 nM
- EC50 ([24]; AsPC-1 (K-RAS: G12D), absolute EC50, read-out: Ab EC50): > 30 µM
- Top Inhibition % ([24]; AsPC-1, % of top inhibition): 25.0%
- EC50 ([24]; AsPC-1, relative EC50, read-out: Re EC50): 6.64 µM
- EC50 ([25]; Pan2.03 (K-RAS: G12D), absolute EC50, read-out: Ab EC50): > 30 µM
- Top Inhibition % ([25]; Pan2.03, % of top inhibition): 26.3%
- EC50 ([25]; Pan2.03, relative EC50, read-out: Re EC50): 6.04 µM
- EC50 ([26]; Pan2.13 (K-RAS: Q61H), absolute EC50, read-out: Ab EC50): > 30000 nM
- Top Inhibition % ([26]; Pan2.13, % of top inhibition): 48.3%
- EC50 ([26]; Pan2.13, relative EC50, read-out: Re EC50): 160 nM
- Top Inhibition % [14]: 11.8%
- Top Inhibition % [15]: 10.8%
- Top Inhibition % [16]: 82.2%
- Top Inhibition % [17]: 17.60%
- Top Inhibition % [18]: 16.4%
- Top Inhibition % [19]: 29.3%
- Top Inhibition % [20]: 38.12%

Compound: Cc1sc2c(c1C)C(c1ccc(Cl)cc1)=NC(CC(=O)OC(C)(C)C)c1nnc(C)n1-2 (racemic) [(±)-JQ1, tert-butyl 2-(4-(4-chlorophenyl)-2,3,9-triMethyl-6H-thieno[3,2-f][1,2,4]triazolo[4,3-a][1,4]diazepin-6-yl)acetate]
- Ratio ([…] DMSO IC50/combination IC50) ([21]; in combination with 0.013 μM K102): 0.55
- Ratio ([…] DMSO IC50/combination IC50) ([21]; in combination with 0.04 μM K102): 0.57
- Ratio ([…] DMSO IC50/combination IC50) ([21]; in combination with 0.33 uM K101A): 0.27
- Ratio ([…] DMSO IC50/combination IC50) ([21]; in combination with 1 uM K101A): 0.09
- effect in combination with K101A or K102 in inhibiting the growth of A549 cells ([21]; K101A or K102): strong antagonist effect
- Combination in A549: K101A (synergism/antagonism) [21]: Antagonism
- Combination in A549: K102 (synergism/antagonism) [21]: Antagonism
- effect in combination with K101A and K102 [22]: moderate or minor synergistic/additive effect
